SMILES strings stand for the structures.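 Compound exposure: 48 hours, 5 concentrations, 96-well plates. TGI denotes the concentration required for complete inhibition of growth.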

Some test systems named below: UACC-257 melanoma; SNB-19 CNS; OVCAR-5 ovarian; OVCAR-8 ovarian; NCI-H226 lung; CAKI-1 renal; RPMI-8226 leukemia; U251 CNS; HCT-15 colon; SF-268 CNS; KM12 colon; OVCAR-4 ovarian; M14 melanoma; HCC-2998 colon; ACHN renal; OVCAR-3 ovarian; SW-620 colon; A498 renal.
Holding throughout (assay): NCI anticancer screen, dose series, 48 h

On to `CCOC(=O)[C@H]1Nc2ccc([N+](=O)[O-])cc2C2c3ccccc3CC21` (some centres undefined), for which the TGI is 40.2 µM with UACC-257 melanoma; more than 100 µM with SNB-19 CNS; 70.4 µM with OVCAR-5 ovarian; 56.1 µM with OVCAR-8 ovarian; 55.1 µM in the experiment on NCI-H226 lung; more than 100 µM in the experiment on CAKI-1 renal. Besides, the TGI in the experiment with RPMI-8226 leukemia is more than 100 µM; in the experiment on U251 CNS it was 33.1 µM; with HCT-15 colon it was 41.5 µM; with SF-268 CNS it was 38.5 µM; in the experiment with KM12 colon, more than 100 µM; in the experiment on OVCAR-4 ovarian it was 49.8 µM. Moreover, the TGI was 34.3 µM in the experiment on M14 melanoma; 44.2 µM in the experiment with HCC-2998 colon; 72.3 µM in the experiment with ACHN renal; 23.1 µM with OVCAR-3 ovarian; 41.6 µM with SW-620 colon.
Regarding `CC(=O)C(CN(C)C)C(c1ccccc1)c1c(O)c2ccccc2oc1=O` (centres undefined), the TGI with UACC-257 melanoma, in the experiment with SNB-19 CNS, in the experiment with OVCAR-5 ovarian, with OVCAR-8 ovarian, with NCI-H226 lung and in the experiment with CAKI-1 renal was more than 100 µM in each case. Moreover, the TGI in the experiment on RPMI-8226 leukemia, in the experiment with U251 CNS, with HCT-15 colon, in the experiment on SF-268 CNS, in the experiment on KM12 colon and in the experiment on OVCAR-4 ovarian was more than 100 µM throughout. Moreover, the TGI in the experiment with M14 melanoma, with HCC-2998 colon, in the experiment with ACHN renal, in the experiment on OVCAR-3 ovarian and in the experiment on SW-620 colon was more than 100 µM throughout.
For `Cc1cc(=O)[nH]c(NNC(C#N)c2c(O)ccc3ccccc23)n1` (centres undefined), the TGI worked out at 19.8 µM in the experiment on UACC-257 melanoma; 82.7 µM in the experiment with OVCAR-5 ovarian; 68.2 µM in the experiment on OVCAR-8 ovarian; 17.6 µM in the experiment with NCI-H226 lung; 22 µM in the experiment with CAKI-1 renal; 46.5 µM in the experiment with RPMI-8226 leukemia. For the same molecule, the TGI with U251 CNS was found to be 43.3 µM; in the experiment with HCT-15 colon, 18.8 µM; with SF-268 CNS, 40.7 µM; with KM12 colon it was 17.3 µM; in the experiment on OVCAR-4 ovarian it was 31.1 µM; in the experiment with M14 melanoma it was 15.6 µM. Besides, the TGI in the experiment on ACHN renal turned out to be 13 µM; in the experiment with OVCAR-3 ovarian, 43.1 µM; in the experiment on SW-620 colon, 29.9 µM.
With `CC1(S)CC2C(CC1Sc1ccccc1)C2(C)C` (centres undefined), the TGI in the experiment on UACC-257 melanoma, in the experiment with OVCAR-5 ovarian, with OVCAR-8 ovarian, in the experiment with NCI-H226 lung, in the experiment on RPMI-8226 leukemia and in the experiment with U251 CNS was more than 100 µM in each case. Moreover, the TGI with HCT-15 colon, in the experiment with SF-268 CNS, in the experiment with KM12 colon, with OVCAR-4 ovarian, with M14 melanoma and in the experiment on HCC-2998 colon was more than 100 µM each time. For the same molecule, the TGI in the experiment with ACHN renal and with OVCAR-3 ovarian was more than 100 µM throughout.
Consider `O=C(Nc1cc(Cl)cc(Cl)c1)/C(Cc1nc2ccccc2[nH]c1=O)=N/NC(=O)c1ccncc1`, for which the TGI in the experiment on UACC-257 melanoma, in the experiment on SNB-19 CNS, in the experiment on OVCAR-5 ovarian, in the experiment on OVCAR-8 ovarian, in the experiment on CAKI-1 renal and in the experiment on RPMI-8226 leukemia was more than 100 µM each time. Also, the TGI in the experiment on U251 CNS, with HCT-15 colon, in the experiment on KM12 colon, with OVCAR-4 ovarian, in the experiment on M14 melanoma and with HCC-2998 colon was more than 100 µM in each case. The TGI with A498 renal, in the experiment on ACHN renal, in the experiment on OVCAR-3 ovarian and in the experiment with SW-620 colon was more than 100 µM throughout.
With `NCCCCC(=O)c1cccnc1`, the TGI in the experiment on UACC-257 melanoma, in the experiment on SNB-19 CNS, in the experiment with OVCAR-5 ovarian, in the experiment on OVCAR-8 ovarian, in the experiment with CAKI-1 renal and in the experiment on RPMI-8226 leukemia was more than 100 µM each time. In addition, the TGI with U251 CNS, in the experiment on HCT-15 colon, in the experiment with SF-268 CNS, in the experiment on KM12 colon, in the experiment on M14 melanoma and with A498 renal was more than 100 µM throughout. Further, the TGI in the experiment with OVCAR-3 ovarian and in the experiment on SW-620 colon was more than 100 µM in each case.
Regarding `Cc1cnc2c(c1)C(=O)C1=C(OC(C)(C)CC1O)C2=O` (centres undefined), the TGI is 27 µM with UACC-257 melanoma; 31.6 µM in the experiment with SNB-19 CNS; more than 100 µM with OVCAR-5 ovarian; 35.6 µM with OVCAR-8 ovarian; 37.5 µM with NCI-H226 lung; 60.6 µM in the experiment on RPMI-8226 leukemia. Besides, the TGI in the experiment with U251 CNS is 29.3 µM; in the experiment with HCT-15 colon, 36.2 µM; in the experiment on SF-268 CNS, 37.2 µM; in the experiment on KM12 colon it was more than 100 µM; in the experiment on OVCAR-4 ovarian, 25.6 µM; in the experiment on M14 melanoma, 30.5 µM. Further, the TGI was 32.9 µM with HCC-2998 colon, 29 µM in the experiment with ACHN renal, 23.4 µM in the experiment on OVCAR-3 ovarian and 28.5 µM with SW-620 colon.
